Measurements published in US9067949B2, “Benzofuro[3,2-c] pyridines and related analogs as serotonin sub-type 6 (5-HT6) modulators for the treatment of obesity, metabolic syndrome, cognition and schizophrenia” (Albany Molecular Research, Inc., priority 2011, dated 2015).

system: not given; assay: not given; conditions: not given

Compound | melting point
CC1NCCc2oc3c(Cl)cc(S(=O)(=O)c4ccccc4)cc3c21.Cl (single isomer, unassigned; (+)) [Example 82a, (+)-6-chloro-1-methyl-8-(phenylsulfonyl)-1,2,3,4-tetrahydrobenzofuro[3,2-c]pyridine hydrochloride] | 295 °C (dec.)
O=S(=O)(c1ccccc1)c1cc(Cl)c2oc3c(c2c1)CC(O)CC3 (single isomer, unassigned; (+)) [Example 99, (+)-6-chloro-8-(phenylsulfonyl)-1,2,3,4-tetrahydrodibenzo[b,d]furan-2-ol] | 238 to 242 °C

molecular target: human 5-HT6 receptor (Homo sapiens (Human), UniProt P50406); assay: 5-HT6 radioligand binding assay (SPA format, [N-methyl-3H]-LSD); conditions: human 5-HT6 receptor membranes, 10 nM [N-methyl-3H]-LSD; Ki by Cheng-Prusoff; hydrochloride; read-out: human 5HT6 Ki
Description: The relative affinities of the various compounds for the 5-HT6 receptor were measured in a radioligand binding assay, using a scintillation proximity assay (SPA) format.
For binding analysis vs. the human receptor, samples were incubated in 50 mM Tris-HCl, pH 7.5, 5 mM MgCl2, 1 mM EDTA (4% DMSO final) with 10 nM [N-methyl-^3H]-LSD (Perkin Elmer), 2.5 ng of human 5-HT6 receptor membranes (Millipore) and 50 μg SPA beads (PVT-PEI-WGA, GE Healthcare) per well in a final volume of 0.2 mL. […] Binding reactions were performed in PicoPlate96 microtiter plates (Perkin Elmer) by consecutively adding 50 μL of each competing compound or buffer, SPA beads, radioligand and 5-HT6 receptor membranes. After an overnight incubation at room temperature on a Nutator mixer, plates were centrifuged for 15 min at 1,500 rpm, followed by incubation in the dark for 10 min. […] Total binding control contained compound dilution buffer only; nonspecific binding is determined in the presence of 100 μM 5-hydroxytryptamine. Specific binding was determined by subtracting nonspecific binding from total binding.
All experiments were performed in duplicate using ten concentrations of competing ligand, with clozapine included as a control in every run. IC50 values were determined from specific binding data using XLfit4.1 curve fitting software from IDBS Ltd. The inhibition constant (Ki) was calculated using the Cheng-Prusoff equation: (Ki=IC50/(1+(L/KD)), where L=concentration of radioligand in the assay, and KD=affinity of the radioligand for the receptor.

Sequence of human 5-HT6 receptor (P50406 whole entry): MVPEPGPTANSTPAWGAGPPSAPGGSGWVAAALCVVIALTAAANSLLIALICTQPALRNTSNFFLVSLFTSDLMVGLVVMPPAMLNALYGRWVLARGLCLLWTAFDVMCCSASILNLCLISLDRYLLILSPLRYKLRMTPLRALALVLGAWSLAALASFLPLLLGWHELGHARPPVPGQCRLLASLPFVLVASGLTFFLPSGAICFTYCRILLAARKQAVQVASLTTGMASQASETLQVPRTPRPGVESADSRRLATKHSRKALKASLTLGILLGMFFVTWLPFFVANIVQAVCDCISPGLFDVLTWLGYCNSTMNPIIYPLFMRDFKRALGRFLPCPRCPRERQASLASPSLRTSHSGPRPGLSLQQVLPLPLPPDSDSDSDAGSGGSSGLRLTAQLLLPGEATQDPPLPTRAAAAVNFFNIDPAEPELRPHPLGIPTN

Compound | Ki [nM]
CC1NCCc2oc3c(Cl)cc(S(=O)(=O)c4ccccc4)cc3c21.Cl (single isomer, unassigned; (+)) [Example 82a, (+)-6-chloro-1-methyl-8-(phenylsulfonyl)-1,2,3,4-tetrahydrobenzofuro[3,2-c]pyridine hydrochloride] | 56

same assay, conditions: human 5-HT6 receptor membranes, 10 nM [N-methyl-3H]-LSD; Ki by Cheng-Prusoff; read-out: human 5HT6 Ki

Compound | Ki [nM]
O=S(=O)(c1ccccc1)c1cc(Cl)c2oc3c(c2c1)CC(O)CC3 (single isomer, unassigned; (+)) [Example 99, (+)-6-chloro-8-(phenylsulfonyl)-1,2,3,4-tetrahydrodibenzo[b,d]furan-2-ol] | 1
COc1cc(S(=O)(=O)c2ccc(OC(F)(F)F)cc2)cc2c3c(oc12)CCNC3 [Example 165] | 1.9
COc1cc(S(=O)(=O)c2cccc(F)c2)cc2c3c(oc12)CCNC3 [Example 166] | 0.2
COc1cc(S(=O)(=O)c2cccc(C(F)(F)F)c2)cc2c3c(oc12)CCNC3 [Example 167] | 0.13
COc1cc(S(=O)(=O)c2cccc(OC(F)(F)F)c2)cc2c3c(oc12)CCNC3 [Example 168] | 0.19
COc1cc(S(=O)(=O)c2ccc(F)cc2)cc2c3c(oc12)CCNC3 [Example 169] | 0.75
COc1cc(S(=O)(=O)c2ccc(C(C)O)cc2)cc2c3c(oc12)CCNC3 (stereo not drawn) [Example 170] | 2.9
COc1cc(S(=O)(=O)c2ccc([C@H](C)O)cc2)cc2c3c(oc12)CCNC3 [Example 171] | 8.6
COc1cc(S(=O)(=O)c2ccc([C@@H](C)O)cc2)cc2c3c(oc12)CCNC3 [Example 172] | 1.9
COc1cc(S(=O)(=O)c2cccc(C(C)O)c2)cc2c3c(oc12)CCNC3 (stereo not drawn) [Example 173] | 0.6
COc1cc(S(=O)(=O)c2cccc([C@@H](C)O)c2)cc2c3c(oc12)CCNC3 [Example 174] | 0.69
COc1cc(S(=O)(=O)c2cccc([C@H](C)O)c2)cc2c3c(oc12)CCNC3 [Example 175] | 1.2
COc1cc(S(=O)(=O)c2ccc(C(C)(C)O)cc2)cc2c3c(oc12)CCNC3 [Example 176] | 0.74
COc1cc(S(=O)(=O)c2cccc(C(C)(C)O)c2)cc2c3c(oc12)CCNC3 [Example 177] | 0.35
COc1cc(S(=O)(=O)c2cccc(C(O)C(F)(F)F)c2)cc2c3c(oc12)CCNC3 (stereo not drawn) [Example 178] | 0.32
COc1cc(S(=O)(=O)c2ccc(C3CCOC3)cc2)cc2c3c(oc12)CCNC3 (stereo not drawn) [Example 180] | 2.2
COc1cc(S(=O)(=O)c2cn(C)c3ccccc23)cc2c3c(oc12)CCNC3 [Example 183] | 0.16
COc1cc(S(=O)(=O)c2ccc3sccc3c2)cc2c3c(oc12)CCNC3 [Example 184] | 0.16
COc1cc(S(=O)(=O)c2csc3ccccc23)cc2c3c(oc12)CCNC3 [Example 185] | 0.1
COc1cc(S(=O)(=O)c2cc(F)cc(F)c2)cc2c3c(oc12)CCNC3 [Example 186] | 0.33
COc1cc(S(=O)(=O)c2ccsc2)cc2c3c(oc12)CCNC3 [Example 187] | 0.27
COc1cc(S(=O)(=O)c2cc(F)cc(Cl)c2)cc2c3c(oc12)CCNC3 [Example 188] | 0.11
COc1cc(S(=O)(=O)c2ccc(Cl)cc2)cc2c3c(oc12)CCNC3 [Example 189] | 0.28
COc1cc(S(=O)(=O)c2cccc(Cl)c2)cc2c3c(oc12)CCNC3 [Example 190] | 0.05

Compound | Ki [nM]
COc1cc(S(=O)(=O)c2cc(Cl)cc(Cl)c2)cc2c3c(oc12)CCNC3 [Example 191] | 0.23
COc1cc(S(=O)(=O)c2cccs2)cc2c3c(oc12)CCNC3 [Example 192] | 0.17
COc1cc(S(=O)(=O)c2ccc3c(c2)COC3)cc2c3c(oc12)CCNC3 [Example 193] | 0.8
Cc1cc(S(=O)(=O)c2ccccc2F)cc2c3c(oc12)CCNC3 [Example 194] | 0.39
Cc1cc(S(=O)(=O)c2cccc(Cl)c2)cc2c3c(oc12)CCNC3 [Example 195] | 0.28
Cc1cc(S(=O)(=O)c2ccc(Cl)cc2)cc2c3c(oc12)CCNC3 [Example 196] | 1.1
Cc1cc(S(=O)(=O)c2cc(F)cc(F)c2)cc2c3c(oc12)CCNC3 [Example 197] | 1.3
Cc1cc(S(=O)(=O)c2cc(Cl)cc(Cl)c2)cc2c3c(oc12)CCNC3 [Example 198] | 1.2
Cc1cc(S(=O)(=O)c2ccc(F)c(F)c2)cc2c3c(oc12)CCNC3 [Example 199] | 2
Cc1cc(S(=O)(=O)c2cccc(F)c2)cc2c3c(oc12)CCNC3 [Example 200] | 0.5
Cc1cc(S(=O)(=O)c2cccc(C(F)(F)F)c2)cc2c3c(oc12)CCNC3 [Example 201] | 0.22
Cc1cc(S(=O)(=O)c2cccc(OC(F)F)c2)cc2c3c(oc12)CCNC3 [Example 202] | 0.3
Cc1cc(S(=O)(=O)c2ccc(F)cc2)cc2c3c(oc12)CCNC3 [Example 203] | 1.5
Cc1cc(S(=O)(=O)c2ccc3sccc3c2)cc2c3c(oc12)CCNC3 [Example 204] | 0.23
O=S(=O)(c1ccccc1)c1cc(C(F)(F)F)c2oc3c(c2c1)CNCC3 [Example 205] | 2.1
O=S(=O)(c1cccc(C(F)(F)F)c1)c1cc(F)c2oc3c(c2c1)CNCC3 [Example 206] | 5.9
O=S(=O)(c1ccc(F)cc1)c1cc(F)c2oc3c(c2c1)CNCC3 [Example 207] | 44
N#Cc1cc(S(=O)(=O)c2cc(F)cc(F)c2)cc2c3c(oc12)CCNC3 [Example 208] | 50
N#Cc1cc(S(=O)(=O)c2ccc(F)cc2)cc2c3c(oc12)CCNC3 [Example 209] | 18
N#Cc1cc(S(=O)(=O)c2ccccc2)cc2c3c(oc12)CCNC3 [Example 210] | 4.2
Cn1cc(S(=O)(=O)c2cc(C#N)c3oc4c(c3c2)CNCC4)c2ccccc21 [Example 211] | 0.4
N#Cc1cc(S(=O)(=O)c2ccc(Cl)cc2)cc2c3c(oc12)CCNC3 [Example 212] | 8.8
N#Cc1cc(S(=O)(=O)c2cccc(Cl)c2)cc2c3c(oc12)CCNC3 [Example 213] | 1.9
O=S(=O)(c1ccccc1)c1cc(OC(F)(F)F)c2oc3c(c2c1)CNCC3 [Example 214] | 0.88

Compound | Ki [nM]
CCOc1cc(S(=O)(=O)c2ccccc2)cc2c3c(oc12)CCNC3 [Example 215] | 0.11
O=S(=O)(c1ccccc1)c1cc(OC(F)F)c2oc3c(c2c1)CNCC3 [Example 216] | 0.33
O=S(=O)(c1ccccc1)c1cc(OCCO)c2oc3c(c2c1)CNCC3 [Example 217] | 1.6
CC(C)(O)COc1cc(S(=O)(=O)c2ccccc2)cc2c3c(oc12)CCNC3 [Example 218] | 507
CC(C)(O)c1cc(S(=O)(=O)c2ccccc2)cc2c3c(oc12)CCNC3 [Example 220] | 55
CC(O)c1cc(S(=O)(=O)c2ccccc2)cc2c3c(oc12)CCNC3 (stereo not drawn) [Example 221] | 5.7
NC(=O)c1cc(S(=O)(=O)c2ccccc2)cc2c3c(oc12)CCNC3 [Example 222] | 307
CN(C)C(=O)c1cc(S(=O)(=O)c2ccccc2)cc2c3c(oc12)CCNC3 [Example 223] | 1110
O=S(=O)(c1ccccc1)c1cc(-c2cc[nH]n2)c2oc3c(c2c1)CNCC3 [Example 224] | 4.5
Cn1cc(-c2cc(S(=O)(=O)c3ccccc3)cc3c4c(oc23)CCNC4)cn1 [Example 225] | 11
O=S(=O)(c1ccccc1)c1cc(-n2cncn2)c2oc3c(c2c1)CNCC3 [Example 226] | 106
Cn1ccc(-c2cc(S(=O)(=O)c3ccccc3)cc3c4c(oc23)CCNC4)n1 [Example 227] | 60
O=S(=O)(c1ccccc1)c1cc(N2CCOCC2)c2oc3c(c2c1)CNCC3 [Example 228] | 47
O=S(=O)(c1ccccc1)c1cc(Cn2ccnc2)c2oc3c(c2c1)CNCC3 [Example 229] | 64
COc1cc(Sc2ccccc2)cc2c3c(oc12)CCNC3 [Example 230] | 1.9
[O-][S+](c1ccccc1)c1cc(Cl)c2oc3c(c2c1)CNCC3 (stereo not drawn) [Example 231] | 3.1
[O-][S+](c1ccccc1)c1cc(Cl)c2oc3c(c2c1)CNCC3 (stereo not drawn) [Example 232] | 29
COc1cc([S+]([O-])c2ccccc2)cc2c3c(oc12)CCNC3 (stereo not drawn) [Example 233] | 2.4
COc1cc([S+]([O-])c2ccccc2)cc2c3c(oc12)CCNC3 (stereo not drawn) [Example 234] | 7.4
COc1cc([S+]([O-])c2ccccc2)cc2c3c(oc12)CCNC3 (stereo not drawn) [Example 235] | 1.1
Clc1cc(Cc2ccccc2)cc2c3c(oc12)CCNC3 [Example 236] | 24
COc1cc(Oc2ccccc2)cc2c3c(oc12)CCNC3 [Example 237] | 645
COc1cc(S(=O)(=O)c2ccccc2)cc2c3c(oc12)CCC(O)C3 (stereo not drawn) [Example 238] | 0.59
CC(=O)N1CCc2oc3c(Cl)cc(S(=O)(=O)c4ccccc4)cc3c2C1 [Example 239] | 9.5
